The record followed here is article PMC6865181, “Role of L-Type Amino Acid Transporter 1 (LAT1) for the Selective Cytotoxicity of Sesamol in Human Melanoma Cells” (Molecules, 2019).

Usually inhibition stands for how much of the control response was suppressed. A word on the IC50: it is the concentration needed to halve the response being measured.

SMILES strings stand for the structures. Marks after values point to notes of the source that are not given here.

In data set [1] the target is T1, LAT1 (Homo sapiens, UniProt Q01650). Briefly: LAT1 function: competitive uptake of L-dopa in SK-MEL-2 cells. The settings on record: for L-Dopa Distribution Volume in presence of the compound: competitor at the concentration printed in the row; for Percent Inhibition of L-Dopa Distribution Volume: competitor (BCH, L-tyrosine, sesamol 1 mM; L-leucine, L-alanine 2 mM; melphalan 0.05 mM). The data set is classed as cell-based. How it is done: (§1) SK-MEL-2 and Vero cells were seeded separately into 24-well plates at 2 × 10^5 cells/well for 24 h. The media was removed, and the cells pre-incubated with HBSS pH 7.4 for 10 min. The cells were used for the following experiments.
T1 sequence (Q01650 whole entry): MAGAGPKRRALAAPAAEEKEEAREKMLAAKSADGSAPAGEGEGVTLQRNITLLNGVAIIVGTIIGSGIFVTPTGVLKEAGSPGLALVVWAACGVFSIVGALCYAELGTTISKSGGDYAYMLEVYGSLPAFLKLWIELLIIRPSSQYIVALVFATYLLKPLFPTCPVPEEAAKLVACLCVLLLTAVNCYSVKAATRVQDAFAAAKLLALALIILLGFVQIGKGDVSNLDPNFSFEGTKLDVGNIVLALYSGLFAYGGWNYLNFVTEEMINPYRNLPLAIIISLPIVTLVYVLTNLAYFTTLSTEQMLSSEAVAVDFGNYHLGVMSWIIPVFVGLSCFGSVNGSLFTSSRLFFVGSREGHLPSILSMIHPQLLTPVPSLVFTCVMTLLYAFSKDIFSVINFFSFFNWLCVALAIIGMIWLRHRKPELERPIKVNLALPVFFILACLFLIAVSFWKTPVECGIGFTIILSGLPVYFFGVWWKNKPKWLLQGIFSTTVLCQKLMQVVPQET
T1 sequence (P08195 102-630 partner): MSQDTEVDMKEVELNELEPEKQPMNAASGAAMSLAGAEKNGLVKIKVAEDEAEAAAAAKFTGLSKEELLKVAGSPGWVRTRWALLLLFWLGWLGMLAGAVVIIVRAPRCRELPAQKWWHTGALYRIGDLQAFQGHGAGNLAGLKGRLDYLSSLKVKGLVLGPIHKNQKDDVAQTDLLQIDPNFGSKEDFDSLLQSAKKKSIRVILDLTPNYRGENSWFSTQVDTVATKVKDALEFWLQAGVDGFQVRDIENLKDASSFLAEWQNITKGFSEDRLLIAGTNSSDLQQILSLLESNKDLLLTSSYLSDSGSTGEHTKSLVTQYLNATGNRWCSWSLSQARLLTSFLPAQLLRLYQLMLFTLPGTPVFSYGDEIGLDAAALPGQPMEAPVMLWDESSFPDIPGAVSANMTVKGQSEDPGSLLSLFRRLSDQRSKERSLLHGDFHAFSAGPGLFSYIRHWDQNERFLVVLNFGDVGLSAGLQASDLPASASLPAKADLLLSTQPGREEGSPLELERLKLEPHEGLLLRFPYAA
(§2) Sesamol was also investigated for its affinity to LAT1. […] Competitive uptake was performed for 10 min then the cells were washed twice with ice-cold PBS. The L-dopa was solubilized by 0.1 M HCl and the cell lysate (25 µL) was pipetted for protein determination. […] Intracellular and extracellular L-dopa was quantified by the HPLC assay. The L-dopa uptake was represented as the distribution volume of L-dopa in a cell to media ratio (C/M ratio) as calculated in Section 4.3.1.
The analysis was based on a BDS Hypersil C-18 column, (4.6 × 250 mm, 5 µm packing, Thermo Fisher Scientific, Waltham, MA, USA). The column temperature was set at 30 °C with a flow rate of 0.8 mL/min. The mobile phase for sesamol quantification was 70% methanol in water, vs. 20% methanol in water for L-dopa. […] The validated sesamol quantification conducted using sesamol spiked cell lysate with high selectivity and clear separation from the endogenous cell lysate as previously reported. The % bias and % precision was determined within and between days, each was maintained below 6%.

For data set [2], the system named is LAT1. Briefly: LAT1 function: competitive uptake of L-dopa in Vero cells. Format: cell-based, African green monkey. The note with it: L-dopa 0.1 mM, 10 min; for Percent Inhibition of L-Dopa Distribution Volume: competitor (BCH, L-tyrosine, sesamol 1 mM; L-leucine, L-alanine 2 mM; melphalan 0.05 mM); for L-Dopa Distribution Volume in presence of the compound: competitor at the concentration printed in the row. As for the experimental part:
as §1, §2
(§3) Quantitative analysis of sesamol and L-dopa were performed using a Shimadzu HPLC (LC-2030C-3D) with a UV photodiode array detector (DAD) (Kyoto, Japan). The analysis was based on a BDS Hypersil C-18 column, (4.6 × 250 mm, 5 µm packing, Thermo Fisher Scientific, Waltham, MA, USA). The column temperature was set at 30 °C with a flow rate of 0.8 mL/min. The mobile phase for sesamol quantification was 70% methanol in water, vs. 20% methanol in water for L-dopa. The respective detection wavelength and elution time for sesamol and L-dopa was 297 nm and 280 nm and 4.2 and 4.5 min. The validated sesamol quantification conducted using sesamol spiked cell lysate with high selectivity and clear separation from the endogenous cell lysate as previously reported. The % bias and % precision was determined within and between days, each was maintained below 6%.

Data set [3] addresses T1, LAT1. Briefly: cell-based. The note with it: for Sesamol Distribution Volume in presence of the compound / Percent Inhibition of Sesamol Distribution Volume: SK-MEL-2, sesamol 0.1 mM, 10 min; for Sesamol Distribution Volume in presence of the compound: competitor at the concentration printed in the row; for Percent Inhibition of Sesamol Distribution Volume: competitor at the concentration (BCH, L-tyrosine, L-dopa 1 mM; L-leucine, L-alanine 2 mM; melphalan 0.05 mM). How it is done: as §1
(§4) Competitive inhibition of uptake of sesamol was done in both SK-MEL-2 and the Vero cells. […] The cells were washed twice with ice-cold PBS, solubilized in methanol, and centrifuged at 2400× g, at 4 °C for 20 min. The precipitated protein was re-solubilized by 0.1 M NaOH prior to protein determination. The sesamol content was quantified using HPLC assay. The cellular uptake of sesamol was calculated as per the C/M ratio.
as §3

The test system of data set [4] is LAT1. The settings on record: Vero cells, sesamol 0.1 mM, 10 min; for Percent Inhibition of Sesamol Distribution Volume: competitor at the concentration (BCH, L-tyrosine, L-dopa 1 mM; L-leucine, L-alanine 2 mM; melphalan 0.05 mM); for Sesamol Distribution Volume in presence of the compound: competitor at the concentration printed in the row. How it is done:
as §1, §4, §3

The test system of another data set is SK-MEL-2 cells. Briefly: Antiproliferative effect, neutral red uptake assay, SK-MEL-2 cells. The data set is classed as cell-based, human. As for the experimental part: (§5) The SK-MEL-2 and Vero cells (at 5 × 10^4 cells/well) were seeded separately into 96-well plates. After the cells were exposed to the tested compounds (200 µL) for 24 h, neutral red (50 µg/mL) (Sigma-Aldrich, St. Louis, MO, USA) was incorporated into the cells for 2 h. The cells were then washed with ice-cold PBS and lysed using 0.33% HCl in isopropanol. The absorbances of neutral red were measured at 540 nm with a reference wavelength of 660 nm using a UV-microplate reader (Perkin Elmer, Waltham, MA, USA). […] The selective index was calculated from the ratio of the IC50 of Vero and SK-MEL-2 cells.

The next data set has as its system Vero cells. Briefly: Antiproliferative effect, neutral red uptake assay, Vero cells. The data set is classed as cell-based, African green monkey. As for the experimental part: as §5
Where [5] appears, read: SK-MEL-2, L-dopa 0.1 mM, 10 min.
Setting [6] is: SK-MEL-2, read-out: Percent Inhibition of L-Dopa Distribution Volume.
Where [7] appears, read: SK-MEL-2, read-out: Percent Inhibition of Sesamol Distribution Volume.

As for `C[C@H](N)C(=O)O` [L-Alanine, L-alanine], the “L-Dopa Distribution Volume in presence of the compound” value is 121.2 ± 3.6 µL/mg Protein at LAT1 [1] (setting [5]) and 101.3 ± 4.0 µL/mg Protein with LAT1 [2]. Moreover, the inhibition at 2000 µM on LAT1 [1] (setting [6]) is 67%; at LAT1 [3] (setting [7]) it was 44%. Also, the “Percent Inhibition of L-Dopa Distribution Volume” value with LAT1 [2] is listed as 35%. The “Sesamol Distribution Volume in presence of the compound” value at LAT1 [3] was 13.1 ± 0.3 µL/mg Protein; with LAT1 [4], 13.3 ± 2.0 µL/mg Protein. Moreover, the “Percent Inhibition of Sesamol Distribution Volume” value in the data set on LAT1 [4] is 25%.

For `N[C@@H](Cc1ccc(N(CCCl)CCCl)cc1)C(=O)O` [Melphalan, melphalan], the values for the inhibition at 50 µM on LAT1 [1] (setting [6]) and at LAT1 [3] (setting [7]) were 47% and 60%, respectively. The “L-Dopa Distribution Volume in presence of the compound” value was found to be 196.6 ± 20.3 µL/mg Protein at LAT1 [1] (setting [5]) and 95.5 ± 11.2 µL/mg Protein with LAT1 [2]. Further, the “Percent Inhibition of L-Dopa Distribution Volume” value with LAT1 [2] was 39%. Besides, the results for the “Sesamol Distribution Volume in presence of the compound” value on LAT1 [3] and with LAT1 [4] were 9.4 ± 0.7 µL/mg Protein and 11.7 ± 0.7 µL/mg Protein, respectively. Moreover, the “Percent Inhibition of Sesamol Distribution Volume” value in the data set with LAT1 [4] came out at 35%. For the same molecule, the concentration for half-maximal inhibition (IC50) in the data set with SK-MEL-2 cells (Homo sapiens, SK-MEL-2, 24 h, read-out: IC50 (cell viability)) came out at 100 µM; in the data set on Vero cells (Chlorocebus sabaeus, Vero, 24 h, read-out: IC50 (cell viability)) it was 600 ± 300 µM. Besides, the “Selective Index” value in the data set with SK-MEL-2 cells (ratio of the IC50 of Vero and SK-MEL-2 cells) was found to be 6.0.

Take `CC(C)C[C@H](N)C(=O)O` [L-leucine, L-Leucine]: the “Percent Inhibition of L-Dopa Distribution Volume” value at LAT1 [1] (setting [5]) and in the data set on LAT1 [2] was 75% throughout. Also, the “L-Dopa Distribution Volume in presence of the compound” value stood at 94.1 ± 13.5 µL/mg Protein at LAT1 [1] (setting [5]) and 39.1 ± 2.3 µL/mg Protein in the data set with LAT1 [2]. Further, the “Percent Inhibition of Sesamol Distribution Volume” value at LAT1 [3] came out at 50%; in the data set on LAT1 [4] it was 23%. The “Sesamol Distribution Volume in presence of the compound” value at LAT1 [3] is 11.7 ± 0.7 µL/mg Protein; in the data set with LAT1 [4] it was 13.8 ± 1.4 µL/mg Protein.

For `N[C@@H](Cc1ccc(O)c(O)c1)C(=O)O` [L-Dopa, L-dopa], the “L-Dopa Distribution Volume, control (no competitor)” value at LAT1 [1] (SK-MEL-2, L-dopa 0.1 mM, 10 min, 37 °C) was 0% (370.6 ± 13.0)^a µL/mg Protein; in the data set with LAT1 [2] (37 °C), 0% (155.6 ± 17.8)^a µL/mg Protein. The inhibition at 1000 µM at LAT1 [3] (setting [7]) worked out at 68%. In addition, the “Sesamol Distribution Volume in presence of the compound” value on LAT1 [3] is given as 7.4 ± 0.8 µL/mg Protein. The “Percent Inhibition of Sesamol Distribution Volume” value with LAT1 [4] is given as 40% (10.8 ± 2.0)^b,c.

With `N[C@@H](Cc1ccc(O)cc1)C(=O)O` [L-tyrosine], the “Percent Inhibition of L-Dopa Distribution Volume” value on LAT1 [1] (setting [5]) is listed as 72%. Further, in the data set on LAT1 [2], the “Percent Inhibition of L-Dopa Distribution Volume” value is 69% and the “L-Dopa Distribution Volume in presence of the compound” value came out at 48.7 ± 11.0 µL/mg Protein. Further, at LAT1 [3], the “Percent Inhibition of Sesamol Distribution Volume” value came out at 75% and the “Sesamol Distribution Volume in presence of the compound” value came to 5.8 ± 0.2 µL/mg Protein. Besides, the “Percent Inhibition of Sesamol Distribution Volume” value in the data set with LAT1 [4] is 41%.

For the molecule `NC1(C(=O)O)CC2CCC1C2` (stereo not drawn) [BCH, 2-Amino-2-norbornanecarboxylic acid], the “Percent Inhibition of L-Dopa Distribution Volume” value at LAT1 [1] (setting [5]) was found to be 82%; in the data set on LAT1 [2] it was 69%. The “L-Dopa Distribution Volume in presence of the compound” value on LAT1 [1] (setting [5]) is reported as 67.3 ± 14.0 µL/mg Protein; in the data set with LAT1 [2], 47.9 ± 3.7 µL/mg Protein. For the same molecule, the “Percent Inhibition of Sesamol Distribution Volume” value on LAT1 [3] is recorded as 55%; in the data set with LAT1 [4], 42%. The entries for the “Sesamol Distribution Volume in presence of the compound” value on LAT1 [3] and in the data set on LAT1 [4] were 10.3 ± 0.9 µL/mg Protein and 10.4 ± 1.9 µL/mg Protein, respectively. Further, the “cytotoxicity compared to untreated cells” value in the data set on SK-MEL-2 cells (SK-MEL-2 cells, BCH 1 mM) is “no cytotoxicity”; with Vero cells (Vero cells, BCH 1 mM), “no cytotoxicity”.
